Laboratory results as given in patent publication US8008303B2, “Biphenyl derivatives and their use in treating hepatitis C” (AstraZeneca AB, priority 2005, dated 2011).
Read-outs that look alike come from different tables or passages of the source.

Tests used:
[1] = test system: HCV replicon cells Huh 9B; test: HCV replicon assay (luciferase readout); type: cell-based
How it was run: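 Compounds, made up at twice final strength (final DMSO 1%), were added to subgenomic replicon cells one day after plating. Incubation then ran 72 h at 37 °C, 5% CO2, without G418. Replication was quantified as firefly luciferase luminescence in lysed cells, with cytotoxicity assessed on a duplicate clear plate.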

[2] = test system: HCV replicon cells Huh 9B; type: cell-based
[3] = Hepatitis C virus, 72 h, concentration reducing replicon level (luciferase activity) by 50% vs untreated cell control, 72 h incubation
[4] = concentration reducing total cell area by 50% relative to DMSO controls, methylene blue, absorbance 620 nm, 72 h incubation

Row | SMILES | IC50 [1] [nM] | TD50 [2] | IC50 [1, 3] [nM] | TD50 [2, 4]
1 | Cc1ccc(C(=O)Nc2ccc(N3CCOCC3)cc2)cc1-c1ccc(C(=O)Nc2cccc(C(F)(F)F)c2)cc1 [Example 23, 6-Methyl-biphenyl-3,4′-dicarboxylic acid 3-[(4-morpholin-4-yl-phenyl)-amide] 4′-[(3-trifluoromethyl-phenyl)-amide]] | 1000 to 5000 | * (key: * < 50 μM; ** > 50 μM) |  | 
2 | CS(=O)(=O)N1CCN(Cc2ccc(NC(=O)c3ccc(-c4cc(NC(=O)NC5CCCCC5)ccc4OC(F)(F)F)cc3)cc2)CC1 [Example 235, 5′-(3-Cyclohexyl-ureido)-2′-trifluoromethoxy-biphenyl-4-carboxylic acid [4-(4-methanesulfonyl-piperazin-1-ylmethyl)-phenyl]-amide] |  |  | < 1000 | * (* < 50 μM)
3 | COc1ccc(C(=O)Nc2ccc(N3CCS(=O)(=O)CC3)cc2)cc1-c1ccc(C(=O)Nc2ccc(N3CCN(C)CC3)cc2)cc1 [Example 261, 6-Methoxy-biphenyl-3,4′-dicarboxylic acid 3-{[4-(4-(1,1-dioxo-1lambda*6*-thiomorpholin-4-yl)-phenyl]-amide} 4′-{[4-(4-methyl-piperazin-1-yl)-phenyl]-amide}] | 1000 to 5000 | * (key: * < 50 μM; ** > 50 μM) |  | 
4 | CCCC(=O)Nc1ccc(C)c(-c2ccc(C(=O)Nc3ccc(CN4CCS(=O)(=O)CC4)cc3)cc2)c1 [Example 182, 5′-Butyrylamino-2′-methyl-biphenyl-4-carboxylic acid [4-(1,1-dioxo-1lambda*6*-thiomorpholin-4-ylmethyl)-phenyl]-amide] |  |  | < 1000 | * (* < 50 μM)
5 | CCCS(=O)(=O)N1CCN(Cc2ccc(NC(=O)c3ccc(-c4cc(NC(=O)C5CC5)ccc4OC(F)(F)F)cc3)cc2)CC1 [Example 237, 5′-(Cyclopropanecarbonyl-amino)-2′-trifluoromethoxy-biphenyl-4-carboxylic acid {4-[4-(propane-1-sulfonyl)-piperazin-1-ylmethyl]-phenyl}-amide] |  |  | < 1000 | * (* < 50 μM)
6 | Cc1ccc(C(=O)Nc2ccc(N3CCOCC3)cc2)cc1-c1ccc(C(=O)Nc2cccc(CN3CCS(=O)(=O)CC3)c2)cc1 [Example 136, 6-Methyl-biphenyl-3,4′-dicarboxylic acid 4′-{[3-(1,1-dioxo-1lambda*6*-thiomorpholin-4-ylmethyl)-phenyl]-amide} 3-[(4-morpholin-4-yl-phenyl)-amide]] | 1000 to 5000 | * (key: * < 50 μM; ** > 50 μM) |  | 
7 | Cc1cc(NC(=O)c2ccco2)ccc1-c1cccc(C(=O)Nc2ccc(N3CCOCC3)cc2)c1 [Example 114, Furan-2-carboxylic acid [2-methyl-3′-(4-morpholin-4-yl-phenylcarbamoyl)-biphenyl-4-yl]-amide] |  |  | > 5000 | * (* < 50 μM)
8 | Cc1ccc(NC(=O)c2ccco2)cc1-c1ccc(C(=O)NCc2cccc(Cl)c2)cc1 [Example 209, Furan-2-carboxylic acid [4′-(3-chloro-benzylcarbamoyl)-6-methyl-biphenyl-3-yl]-amide] |  |  | 1000 to 5000 | ** (** > 50 μM)
9 | CC(=O)Nc1cc(NC(=O)c2ccc(-c3cc(C(=O)Nc4ccc(N5CCOCC5)cc4)ccc3C)cc2)ccc1C [Example 77, 6-Methyl-biphenyl-3,4′-dicarboxylic acid 4′-[(3-acetylamino-4-methyl-phenyl)-amide] 3-[(4-morpholin-4-yl-phenyl)-amide]] | 1000 to 5000 | * (key: * < 50 μM; ** > 50 μM) |  | 
10 | Cc1ccc(NC(=O)C2CCCCC2)cc1-c1ccc(NC(=O)c2ccc(CN3CCS(=O)(=O)CC3)cc2)cc1 [Example 150, N-[5′-(Cyclohexanecarbonyl-amino)-2′-methyl-biphenyl-4-yl]-4-(1,1-dioxo-1lambda*6*-thiomorpholin-4-ylmethyl)-benzamide] |  |  | < 1000 | * (* < 50 μM)
11 | Cc1ccc(C(=O)Nc2ccc(N3CCOCC3)cc2)cc1-c1ccc(C(=O)Nc2ccc(CN3CCCCC3)cc2)cc1 [Example 73, 6-Methyl-biphenyl-3,4′-dicarboxylic acid 3-[(4-morpholin-4-yl-phenyl)-amide] 4′-[(4-piperidin-1-ylmethyl-phenyl)-amide]] | < 1000 | * (key: * < 50 μM; ** > 50 μM) |  | 
12 | COc1ccc(NC(=O)C2CCCCC2)cc1-c1ccc(C(=O)Nc2ccc(CN3CCS(=O)(=O)CC3)cc2)cc1 [Example 187, 5′-(Cyclohexanecarbonyl-amino)-2′-methoxy-biphenyl-4-carboxylic acid [4-(1,1-dioxo-1lambda*6*-thiomorpholin-4-ylmethyl)-phenyl]-amide] |  |  | < 1000 | * (* < 50 μM)
13 | Cc1ccc(C(=O)Nc2ccc(N3CCOCC3)cc2)cc1-c1ccc(C(=O)NCc2ccsc2)cc1 [Example 40, 6-Methyl-biphenyl-3,4′-dicarboxylic acid 3-[(4-morpholin-4-yl-phenyl)-amide] 4′-[(thiophen-3-ylmethyl)-amide]] | 1000 to 5000 | ** (key: * < 50 μM; ** > 50 μM) |  | 
14 | Cc1ccc(C(=O)Nc2ccc(N3CCOCC3)cc2)cc1-c1ccc(C(=O)Nc2ccccc2CN2CCCCC2)cc1 [Example 80, 6-Methyl-biphenyl-3,4′-dicarboxylic acid 3-[(4-morpholin-4-yl-phenyl)-amide] 4′-[(2-piperidin-1-ylmethyl-phenyl)-amide]] | 1000 to 5000 | * (key: * < 50 μM; ** > 50 μM) |  | 
15 | Cc1ccc(CNC(CO)Cc2cnc[nH]2)cc1-c1ccc(C(=O)Nc2ccc(CN3CCS(=O)(=O)CC3)cc2)cc1 (centres unmarked) [Example 200, 5′-{[1-Hydroxymethyl-2-(3H-imidazol-4-yl)-ethylamino]-methyl}-2′-methyl-biphenyl-4-carboxylic acid [4-(1,1-dioxo-1lambda*6*-thiomorpholin-4-ylmethyl)-phenyl]-amide] |  |  | > 5000 | ** (** > 50 μM)
16 | Cc1ccc(NC(=O)c2cccn2C)cc1-c1ccc(C(=O)Nc2ccc(CN3CCS(=O)(=O)CC3)cc2)cc1 [Example 157, 1-Methyl-1H-pyrrole-2-carboxylic acid {4′-[4-(1,1-dioxo-1lambda*6*-thiomorpholin-4-ylmethyl)-phenylcarbamoyl]-6-methyl-biphenyl-3-yl}-amide] |  |  | < 1000 | * (* < 50 μM)
17 | Cc1ccc(C(=O)Nc2ccc(N3CCOCC3)cc2)cc1-c1ccc(NC(=O)c2ccccc2O)cc1 [Example 109, 4′-(2-Hydroxy-benzoylamino)-6-methyl-biphenyl-3-carboxylic acid (4-morpholin-4-yl-phenyl)-amide] |  |  | 1000 to 5000 | * (* < 50 μM)
18 | Cc1cc(NC(=O)c2ccco2)ccc1-c1cccc(C(=O)Nc2ccc(CN3CCS(=O)(=O)CC3)cc2)c1 [Example 133, Furan-2-carboxylic acid {3′-[4-(1,1-dioxo-1lambda*6*-thiomorpholin-4-ylmethyl)-phenylcarbamoyl]-2-methyl-biphenyl-4-yl}-amide] |  |  | 1000 to 5000 | * (* < 50 μM)
19 | Cc1cc(NC(=O)C2CC2)ccc1-c1cccc(C(=O)Nc2ccc(N3CCOCC3)cc2)c1 [Example 113, 4′-(Cyclopropanecarbonyl-amino)-2′-methyl-biphenyl-3-carboxylic acid (4-morpholin-4-yl-phenyl)-amide] |  |  | > 5000 | * (* < 50 μM)
20 | COc1ccc(S(=O)(=O)Nc2ccc(N3CCOCC3)cc2)cc1-c1ccc(C(=O)Nc2ccc(CN3CCN(S(C)(=O)=O)CC3)cc2)cc1 [Example 245, 2′-Methoxy-5′-(4-morpholin-4-yl-phenylsulfamoyl)-biphenyl-4-carboxylic acid [4-(4-methanesulfonyl-piperazin-1-ylmethyl)-phenyl]-amide] |  |  | < 1000 | * (* < 50 μM)
21 | Cc1ccc(C(=O)NCCCN2CCCC2=O)cc1-c1ccc(C(=O)Nc2ccc(CN3CCS(=O)(=O)CC3)cc2)cc1 [Example 137, 6-Methyl-biphenyl-3,4′-dicarboxylic acid 4′-{[4-(1,1-dioxo-1lambda*6*-thiomorpholin-4-ylmethyl)-phenyl]-amide} 3-{[3-(2-oxo-pyrrolidin-1-yl) -propyl]-amide}] | 1000 to 5000 | * (key: * < 50 μM; ** > 50 μM) |  | 
22 | CCCS(=O)(=O)N1CCN(Cc2ccc(NC(=O)c3ccc(-c4cc(C(=O)Nc5ccc(N6CCOCC6)cc5C)ccc4OC)cc3)cc2)CC1 [Example 260, 6-Methoxy-biphenyl-3,4′-dicarboxylic acid 3-[(2-methyl-4-morpholin-4-yl-phenyl)-amide] 4′-({4-[4-(propane-1-sulfonyl)-piperazin-1-ylmethyl]-phenyl}-amide)] | < 1000 |  |  | * (* < 50 μM)
23 | Cc1ccc(-c2noc(C3CC3)n2)cc1-c1ccc(C(=O)Nc2ccc(CN3CCS(=O)(=O)CC3)cc2)cc1 [Example 205, 5′-(5-Cyclopropyl-[1,2,4]oxadiazol-3-yl)-2′-methyl-biphenyl-4-carboxylic acid [4-(1,1-dioxo-1lambda*6*-thiomorpholin-4-ylmethyl)-phenyl]-amide] |  |  | > 5000 | * (* < 50 μM)
24 | O=C(Nc1ccc2cc[nH]c2c1)c1ccc(-c2cccc(C(=O)Nc3ccc(N4CCOCC4)cc3)c2)cc1 [Example 60, Biphenyl-3,4′-dicarboxylic acid 4′-[(1H-indol-6-yl)-amide] 3-[(4-morpholin-4-yl-phenyl)-amide]] | < 1000 | * (key: * < 50 μM; ** > 50 μM) |  | 
25 | Cc1ccc(NC(=O)c2ccc(N3CCOCC3)cc2)cc1-c1ccc(C(=O)NCc2cccc(Br)c2)cc1 [Example 88, 2′-Methyl-5′-(4-morpholin-4-yl-benzoylamino)-biphenyl-4-carboxylic acid 3-bromo-benzylamide] |  |  | 1000 to 5000 | ** (** > 50 μM)
